Counter-ions that a name gives are not always drawn.

Four compounds from patent US8569318B2, “Tetrahydro-pyrazolo[1,5-a]pyrido-pyrimidines as antagonists of serotonin 5-HT6 receptors, methods for the production and use thereof” (priority 2008, dated 2013) can be followed below.

Assay [1] addresses recombinant human 5-HT6 receptors (Homo sapiens (Human), UniProt P50406). In words: Competitive radioligand binding ([3H] Lysergic acid diethylamide) to serotonin 5-HT6 receptors, HeLa cell membranes. The following applies: for IC50: 1.5 nM [3H] Lysergic acid diethylamide, 120 min at 37° C. As for the experimental part:
Screening of the disclosed compounds for their potential ability to interact with serotonin 5-HT6 receptors was carried out by the method of radioligand binding. For this purpose membrane species were prepared from HeLa cells expressing recombinant human 5-HT6 receptors, by means of cells homogenization in glass homogenizer with subsequent separation of plasmatic membranes from cell nucli, mitochondria's and cell wreckages by differential centrifugation. Determination of tested compounds binding to 5-HT6 receptors was carried out according to the method described in [Monsma F J Jr, Shen Y, Ward R P, Hamblin M W and Sibley D R, Cloning and expression of a novel serotonin receptor with high affinity for tricyclic psychotropic drugs. Mol. Pharmacol. 43:320-327, 1993]. […] After the incubation the samples were filtered in vacuo on glass-microfiber filters G/F (Millipor, USA), filters were washed three times with cold solution of the medium and radioactivity was measured by scintillation counter MicroBeta 340 (PerkinElmer, USA). […] Methiothepin was used as a positive control. Binding of the tested compounds with the receptor was determined by their ability to displace the radioligand and was expressed in percent of displacement. The percent of displacement was calculated according to the following equation:
[formula] wherein: TA—was overall radioactivity in the presence of radioligand only, CA—was radioactivity in the presence of radioligand and tested compound and NA—was radioactivity in the presence of radioligand and Serotonin (5 μM).

The subject of a further assay is mice. In words: Passive Avoidance of mice in the Shuttle Chamber, memory disturbed by MK-801. The class given is in vivo. Conditions: MK-801 0.1 mg/kg, injected 30 minutes before training.

Sequence of recombinant human 5-HT6 receptors (P50406 whole entry): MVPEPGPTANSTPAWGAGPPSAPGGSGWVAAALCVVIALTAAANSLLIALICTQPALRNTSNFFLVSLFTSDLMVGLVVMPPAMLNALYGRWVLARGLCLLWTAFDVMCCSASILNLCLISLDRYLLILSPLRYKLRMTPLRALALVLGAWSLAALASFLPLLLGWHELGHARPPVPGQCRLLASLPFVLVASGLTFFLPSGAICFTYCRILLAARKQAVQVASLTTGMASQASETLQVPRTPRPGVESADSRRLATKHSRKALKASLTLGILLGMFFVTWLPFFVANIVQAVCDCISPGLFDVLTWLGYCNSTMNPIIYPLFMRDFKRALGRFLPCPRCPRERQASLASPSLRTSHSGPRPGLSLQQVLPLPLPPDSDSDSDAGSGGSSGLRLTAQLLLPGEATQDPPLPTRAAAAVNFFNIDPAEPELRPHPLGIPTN

By IC50 is commonly meant the concentration that inhibits the measured activity by half. In general, Ki refers to a dissociation constant, usually derived from enzyme kinetics or from competition with a known ligand. With `CSc1nn2cc3c(nc2c1S(=O)(=O)c1ccccc1)CCN(C)C3` [2.2(2)], in assay [1], the concentration for half-maximal inhibition (IC50) was found to be 0.801 µM. In addition, in assay [1] (Ki=IC50/(1+[L]/KD)), the Ki came out at 0.372 µM.
With `Cc1nn2c3c(cnc2c1S(=O)(=O)c1ccccc1)CNCC3` [1.1(1)], in assay [1], the half-maximal inhibitory concentration (IC50) turned out to be 0.00461 µM.
Regarding `CSc1nn2cc3c(nc2c1S(=O)(=O)c1ccc(F)cc1)CCN(C)C3` [2.2(3)], the concentration for half-maximal inhibition (IC50) in assay [1] is more than 1 µM.
Regarding `Cc1nn2c3c(cnc2c1S(=O)(=O)c1ccccc1)CN(C)CC3` [1.1(3).HCl], in the assay on mice, the “nootropic effect (enhancement of memory disturbed by MK-801)” value was “ability of active ingredient 1.1(3).HCl to produce nootropic effect”.
